Experimental data from PMC5218480 (PLoS ONE, 2017).

System: MV-4-11 cells
Assay: Gene expression microarray analysis (Affymetrix PrimeView) and GSEA
Type: cell-based, human
Parameters: RFU PODN (11730768_x_at) / Fold change /veh PODN (11730768_x_at) / RFU LINC00158 (11744669_a_at) / Fold change /veh LINC00158 (11744669_a_at) / RFU DUSP10 (11751237_a_at) / Fold change /veh DUSP10 (11751237_a_at) / RFU ID3 (11757404_x_at) / Fold change /veh ID3 (11757404_x_at) / RFU PLEKHG5 (11737974_s_at) / Fold change /veh PLEKHG5 (11737974_s_at) / RFU LRRC4B (11730491_at) / Fold change /veh LRRC4B (11730491_at) / RFU GIMAP4 (11747438_a_at) / Fold change /veh GIMAP4 (11747438_a_at) / RFU KRT8 (11758183_x_at) / Fold change /veh KRT8 (11758183_x_at) / RFU CNN1 (11734310_a_at) / Fold change /veh CNN1 (11734310_a_at) / RFU VPS37D (11726825_at) / Fold change /veh VPS37D (11726825_at) / RFU C10orf10 (11716522_x_at) / Fold change /veh C10orf10 (11716522_x_at) / RFU KIR2DL2 /// KIR2DL4 /// KIR2DL5A /// KIR2DL5B /// KIR2DS1 /// KIR2DS2 /// KIR2DS3 /// KIR2DS4 /// KIR3DL3 /// KIR3DL3 /// KIR3DS1 (11738374_at) / Fold change /veh KIR2DL2 /// KIR2DL4 /// KIR2DL5A /// KIR2DL5B /// KIR2DS1 /// KIR2DS2 /// KIR2DS3 /// KIR2DS4 /// KIR3DL3 /// KIR3DL3 /// KIR3DS1 (11738374_at) / RFU C1QL1 (11718748_at) / Fold change /veh C1QL1 (11718748_at) / RFU TMPRSS4 (11747572_a_at) / Fold change /veh TMPRSS4 (11747572_a_at) / RFU HAMP (11756126_x_at) / Fold change /veh HAMP (11756126_x_at) / RFU RNFT2 (11725882_a_at) / Fold change /veh RNFT2 (11725882_a_at) / RFU NR4A2 (11747474_a_at) / Fold change /veh NR4A2 (11747474_a_at) / RFU ABCC12 (11746883_a_at) / Fold change /veh ABCC12 (11746883_a_at) / RFU TMEM136 (11760407_x_at) / Fold change /veh TMEM136 (11760407_x_at) / RFU CLDN22 /// WWC2 (11732394_at) / Fold change /veh CLDN22 /// WWC2 (11732394_at) / RFU HLA-DPB1 (11760878_x_at) / Fold change /veh HLA-DPB1 (11760878_x_at) / RFU SPINT1 (11716480_a_at) / Fold change /veh SPINT1 (11716480_a_at) / RFU GAP43 (11754022_s_at) / Fold change /veh GAP43 (11754022_s_at) / RFU A4GNT (11735810_at) / Fold change /veh A4GNT (11735810_at) / RFU PRB3 (11715151_x_at) / Fold change /veh PRB3 (11715151_x_at) / RFU TUBB4B (11761932_at) / Fold change /veh TUBB4B (11761932_at) / RFU CAPN14 (11732068_a_at) / Fold change /veh CAPN14 (11732068_a_at) / RFU TMCC2 (11721928_a_at) / Fold change /veh TMCC2 (11721928_a_at) / RFU IRGQ (11745062_a_at) / Fold change /veh IRGQ (11745062_a_at) / RFU FAM174B (11720279_a_at) / Fold change /veh FAM174B (11720279_a_at) / RFU TMPRSS4 (11748680_a_at) / Fold change /veh TMPRSS4 (11748680_a_at) / RFU FAM212B (11763350_a_at) / Fold change /veh FAM212B (11763350_a_at) / RFU PLEKHG5 (11743358_a_at) / Fold change /veh PLEKHG5 (11743358_a_at) / RFU ZSCAN30 (11745921_a_at) / Fold change /veh ZSCAN30 (11745921_a_at) / RFU CMKLR1 (11741424_a_at) / Fold change /veh CMKLR1 (11741424_a_at) / RFU LOC101060620 /// MAPK8IP1 (11723275_at) / Fold change /veh LOC101060620 /// MAPK8IP1 (11723275_at) / RFU SPTSSB (11747773_x_at) / Fold change /veh SPTSSB (11747773_x_at) / RFU PRSS12 (11739890_at) / Fold change /veh PRSS12 (11739890_at) / RFU BIN1 (11741810_x_at) / Fold change /veh BIN1 (11741810_x_at) / RFU WNT11 (11732464_a_at) / Fold change /veh WNT11 (11732464_a_at) / RFU C10orf10 (11716521_a_at) / Fold change /veh C10orf10 (11716521_a_at) / RFU C5orf56 (11738089_at) / Fold change /veh C5orf56 (11738089_at) / RFU CYB561 (11721691_x_at) / Fold change /veh CYB561 (11721691_x_at) / RFU ANKRD19P (11752326_a_at) / Fold change /veh ANKRD19P (11752326_a_at) / RFU OR2T12 /// OR2T33 /// OR2T8 (11738714_s_at) / Fold change /veh OR2T12 /// OR2T33 /// OR2T8 (11738714_s_at) / RFU VCAN (11748164_a_at) / Fold change /veh VCAN (11748164_a_at) / RFU JSRP1 (11732532_at) / Fold change /veh JSRP1 (11732532_at) / RFU KRTAP10-11 (11738290_x_at) / Fold change /veh KRTAP10-11 (11738290_x_at) / RFU MYO3A (11730013_a_at) / Fold change /veh MYO3A (11730013_a_at) / RFU EBF3 (11725865_a_at) / Fold change /veh EBF3 (11725865_a_at) / RFU CAMK2N1 (11719241_x_at) / Fold change /veh CAMK2N1 (11719241_x_at) / RFU C5orf56 (11738088_a_at) / Fold change /veh C5orf56 (11738088_a_at) / RFU OLFML3 (11715873_a_at) / Fold change /veh OLFML3 (11715873_a_at) / RFU LOC100653217 /// NTM (11731650_a_at) / Fold change /veh LOC100653217 /// NTM (11731650_a_at) / RFU MAPK11 (11762145_a_at) / Fold change /veh MAPK11 (11762145_a_at) / RFU FIZ1 (11724087_x_at) / Fold change /veh FIZ1 (11724087_x_at) / RFU OASL (11726364_x_at) / Fold change /veh OASL (11726364_x_at) / RFU SOX15 (11748057_x_at) / Fold change /veh SOX15 (11748057_x_at) / RFU CD79A (11719716_a_at) / Fold change /veh CD79A (11719716_a_at) / RFU HIST1H1D (11736915_at) / Fold change /veh HIST1H1D (11736915_at) / RFU CASKIN2 (11723855_a_at) / Fold change /veh CASKIN2 (11723855_a_at) / RFU LOC730098 (11760151_x_at) / Fold change /veh LOC730098 (11760151_x_at) / RFU OR4N2 (11742367_at) / Fold change /veh OR4N2 (11742367_at) / RFU PRRT2 (11749266_a_at) / Fold change /veh PRRT2 (11749266_a_at) / RFU SNX32 (11753110_a_at) / Fold change /veh SNX32 (11753110_a_at) / RFU CDHR5 (11726645_a_at) / Fold change /veh CDHR5 (11726645_a_at) / RFU RCAN1 (11760418_a_at) / Fold change /veh RCAN1 (11760418_a_at) / RFU FAM167A (11723789_a_at) / Fold change /veh FAM167A (11723789_a_at) / RFU FAM26E (11764081_at) / Fold change /veh FAM26E (11764081_at) / RFU ISYNA1 (11749810_s_at) / Fold change /veh ISYNA1 (11749810_s_at) / RFU ACY1 (11761880_at) / Fold change /veh ACY1 (11761880_at) / RFU 11764098_at / Fold change /veh 11764098_at / RFU SAMD14 (11745864_x_at) / Fold change /veh SAMD14 (11745864_x_at) / RFU NPB (11741838_a_at) / Fold change /veh NPB (11741838_a_at) / RFU TMPRSS6 (11731388_a_at) / Fold change /veh TMPRSS6 (11731388_a_at) / RFU KRTAP10-2 (11738614_at) / Fold change /veh KRTAP10-2 (11738614_at) / RFU ARHGAP8 /// PRR5-ARHGAP8 (11727945_x_at) / Fold change /veh ARHGAP8 /// PRR5-ARHGAP8 (11727945_x_at) / RFU KRTAP5-7 /// NADSYN1 (11734609_at) / Fold change /veh KRTAP5-7 /// NADSYN1 (11734609_at) / RFU RASL12 (11751679_a_at) / Fold change /veh RASL12 (11751679_a_at) / RFU CDKN2B (11736163_a_at) / Fold change /veh CDKN2B (11736163_a_at) / RFU PRF1 (11729649_at) / Fold change /veh PRF1 (11729649_at) / RFU, ZNF638 /// ZNF638-IT1 / Fold change vs veh, ZNF638 /// ZNF638-IT1 / RFU, PANK3 / Fold change vs veh, PANK3 / RFU, SH3YL1 / Fold change vs veh, SH3YL1 / RFU, ZEB2 / Fold change vs veh, ZEB2 / RFU, NRIP1 / Fold change vs veh, NRIP1 / RFU, PTTG1IP / Fold change vs veh, PTTG1IP / RFU, CAPN2 / Fold change vs veh, CAPN2 / RFU, MED14 / Fold change vs veh, MED14 / RFU, SNORA58 / Fold change vs veh, SNORA58 / RFU, C1orf63 / Fold change vs veh, C1orf63 / RFU, LRRFIP1 / Fold change vs veh, LRRFIP1 / RFU, NDUFAF7 / Fold change vs veh, NDUFAF7 / RFU, SLC12A2 / Fold change vs veh, SLC12A2 / RFU, IBTK / Fold change vs veh, IBTK / RFU, ESF1 / Fold change vs veh, ESF1 / Fold change vs veh, TMEM50B / RFU, TAOK1 / Fold change vs veh, TAOK1 / RFU, ACBD3 / Fold change vs veh, ACBD3 / RFU, TMA16 / Fold change vs veh, TMA16 / RFU, RWDD3 / Fold change vs veh, RWDD3 / RFU, BCAT1 / Fold change vs veh, BCAT1 / RFU, EDEM3 / Fold change vs veh, EDEM3 / RFU, TMEM33 / Fold change vs veh, TMEM33 / RFU, WDR75 / Fold change vs veh, WDR75 / RFU, AHCTF1 / Fold change vs veh, AHCTF1 / RFU, TFRC / Fold change vs veh, TFRC / RFU, ZDHHC17 / Fold change vs veh, ZDHHC17 / RFU, NOM1 / Fold change vs veh, NOM1 / RFU, ARL8B / Fold change vs veh, ARL8B / RFU, ZBTB11 / Fold change vs veh, ZBTB11 / RFU, TAMM41 / Fold change vs veh, TAMM41 / RFU, KIAA1704 /// LOC100996395 / Fold change vs veh, KIAA1704 /// LOC100996395 / RFU, ING1 / Fold change vs veh, ING1 / RFU, TRMT61B / Fold change vs veh, TRMT61B / RFU, FUBP3 / Fold change vs veh, FUBP3 / RFU, TP53 / Fold change vs veh, TP53 / RFU, TNKS2 / Fold change vs veh, TNKS2 / RFU, ZFP14 / Fold change vs veh, ZFP14 / RFU, ACTR2 / Fold change vs veh, ACTR2 / RFU, PPP3R1 / Fold change vs veh, PPP3R1 / RFU, PIK3R1 / Fold change vs veh, PIK3R1 / RFU, HNRNPA1 / Fold change vs veh, HNRNPA1 / RFU, RNF170 / Fold change vs veh, RNF170 / RFU, ZNF28 / Fold change vs veh, ZNF28 / RFU, RNGTT / Fold change vs veh, RNGTT / RFU, OGT / Fold change vs veh, OGT / RFU, BRD1 / Fold change vs veh, BRD1 / RFU, MARS / Fold change vs veh, MARS / RFU, ZNF655 / Fold change vs veh, ZNF655 / RFU, FAHD1 / Fold change vs veh, FAHD1 / RFU, BDP1 / Fold change vs veh, BDP1 / RFU, LRRCC1 / Fold change vs veh, LRRCC1 / RFU, ARID1A / Fold change vs veh, ARID1A / RFU, ZNF146 / Fold change vs veh, ZNF146 / RFU, ZNF330 / Fold change vs veh, ZNF330 / RFU, GPN3 / Fold change vs veh, GPN3 / RFU, C9orf123 / Fold change vs veh, C9orf123 / RFU, N4BP2L2 / Fold change vs veh, N4BP2L2 / RFU, ARFIP1 / Fold change vs veh, ARFIP1 / RFU, FAM179B / Fold change vs veh, FAM179B / RFU, BCL10 / Fold change vs veh, BCL10 / RFU, UHRF1BP1L / Fold change vs veh, UHRF1BP1L / RFU, BET1 / Fold change vs veh, BET1 / RFU, CNOT2 / Fold change vs veh, CNOT2 / RFU, ZNF268 / Fold change vs veh, ZNF268 / Fold change vs veh, ZNF507 / RFU, DGCR2 / Fold change vs veh, DGCR2 / RFU, WDSUB1 / Fold change vs veh, WDSUB1 / Fold change vs veh, HSP90B1 /// MIR3652 / RFU, ADSS / Fold change vs veh, ADSS / RFU, GK / Fold change vs veh, GK / RFU, ZNF148 / Fold change vs veh, ZNF148 / RFU, TAF9 / Fold change vs veh, TAF9 / RFU, SLC1A5 / Fold change vs veh, SLC1A5 / RFU, SLMO2 / Fold change vs veh, SLMO2 / RFU, ABCC4 / Fold change vs veh, ABCC4 / RFU, LOC101060439 /// RAP1B / Fold change vs veh, LOC101060439 /// RAP1B / RFU, RFX7 / Fold change vs veh, RFX7 / RFU, GTPBP10 / Fold change vs veh, GTPBP10 / RFU, CNEP1R1 / Fold change vs veh, CNEP1R1 / RFU, BIVM-ERCC5 /// ERCC5 / Fold change vs veh, BIVM-ERCC5 /// ERCC5 / RFU, ILF3 / Fold change vs veh, ILF3 / RFU 11762660_at / Fold change /veh 11762660_at / RFU VCAN (11757783_s_at) / Fold change /veh VCAN (11757783_s_at) / RFU DDX43 (11728927_at) / Fold change /veh DDX43 (11728927_at) / RFU KRT8 (11758188_x_at) / Fold change /veh KRT8 (11758188_x_at) / RFU NKD1 (11759106_at) / Fold change /veh NKD1 (11759106_at) / RFU SRD5A1 (11742802_a_at) / Fold change /veh SRD5A1 (11742802_a_at) / RFU TPSAB1 /// TPSB2 (11721975_s_at) / Fold change /veh TPSAB1 /// TPSB2 (11721975_s_at) / RFU GSTM3 (11746129_a_at) / Fold change /veh GSTM3 (11746129_a_at) / RFU IL23R (11737362_x_at) / Fold change /veh IL23R (11737362_x_at) / RFU TMEM51 (11727254_a_at) / Fold change /veh TMEM51 (11727254_a_at) / RFU PIWIL2 (11732686_x_at) / Fold change /veh PIWIL2 (11732686_x_at) / RFU ORM1 (11744905_x_at) / Fold change /veh ORM1 (11744905_x_at) / RFU CCDC152 (11743942_at) / Fold change /veh CCDC152 (11743942_at) / RFU ECM1 (11717891_a_at) / Fold change /veh ECM1 (11717891_a_at) / RFU IL23R (11748794_a_at) / Fold change /veh IL23R (11748794_a_at) / RFU TNFAIP8L3 (11732012_x_at) / Fold change /veh TNFAIP8L3 (11732012_x_at) / RFU MBOAT4 (11741988_at) / Fold change /veh MBOAT4 (11741988_at) / RFU 11764193_at / Fold change /veh 11764193_at / RFU TMEM53 (11763286_at) / Fold change /veh TMEM53 (11763286_at) / RFU MAGEB2 (11727129_at) / Fold change /veh MAGEB2 (11727129_at) / RFU TMEM200A (11744735_a_at) / Fold change /veh TMEM200A (11744735_a_at) / RFU CCDC152 (11751479_a_at) / Fold change /veh CCDC152 (11751479_a_at) / RFU FAM211A (11726209_a_at) / Fold change /veh FAM211A (11726209_a_at) / RFU RGS16 (11746705_a_at) / Fold change /veh RGS16 (11746705_a_at) / RFU VCAN (11755009_s_at) / Fold change /veh VCAN (11755009_s_at) / RFU RHOB (11743442_s_at) / Fold change /veh RHOB (11743442_s_at) / RFU RGS16 (11720943_a_at) / Fold change /veh RGS16 (11720943_a_at) / RFU RGS16 (11720944_at) / Fold change /veh RGS16 (11720944_at) / RFU, VPS4B / Fold change vs veh, VPS4B / RFU, CREB1 / Fold change vs veh, CREB1 / RFU, DNAJC13 / Fold change vs veh, DNAJC13 / RFU, GNAQ / Fold change vs veh, GNAQ / RFU, CDK5R1 / Fold change vs veh, CDK5R1 / RFU, ZRANB3 / Fold change vs veh, ZRANB3 / RFU, CUL4A / Fold change vs veh, CUL4A / RFU, CCNY / Fold change vs veh, CCNY / RFU, UFL1 / Fold change vs veh, UFL1 / RFU, COG3 / Fold change vs veh, COG3 / RFU, DIAPH2 / Fold change vs veh, DIAPH2 / RFU, SKA2 / Fold change vs veh, SKA2 / RFU, AFF3 / Fold change vs veh, AFF3 / RFU, LMF1 / Fold change vs veh, LMF1 / RFU, IPO11 / Fold change vs veh, IPO11 / RFU, DFFB / Fold change vs veh, DFFB / RFU, FOXP1 / Fold change vs veh, FOXP1 / RFU, CARD8 / Fold change vs veh, CARD8 / RFU, STRN3 / Fold change vs veh, STRN3 / RFU, ADK / Fold change vs veh, ADK / RFU, RASSF2 / Fold change vs veh, RASSF2 / RFU, WIPF1 / Fold change vs veh, WIPF1 / RFU, LARP1B / Fold change vs veh, LARP1B / RFU, RASA1 / Fold change vs veh, RASA1 / RFU, RB1 / Fold change vs veh, RB1 / RFU, PPFIA1 / Fold change vs veh, PPFIA1 / RFU, MAT2A / Fold change vs veh, MAT2A / RFU, CCT5 / Fold change vs veh, CCT5 / RFU, WDR92 / Fold change vs veh, WDR92 / RFU, CUX1 / Fold change vs veh, CUX1 / RFU, TTC7A / Fold change vs veh, TTC7A / RFU, TMEM135 / Fold change vs veh, TMEM135 / RFU, DEPTOR / Fold change vs veh, DEPTOR / RFU, CPM / Fold change vs veh, CPM / RFU, DNAJB6 / Fold change vs veh, DNAJB6 / RFU, CACNA2D3 / Fold change vs veh, CACNA2D3 / RFU, DTX4 / Fold change vs veh, DTX4 / RFU, TFCP2 / Fold change vs veh, TFCP2 / RFU, GMCL1 /// GMCL1P1 / Fold change vs veh, GMCL1 /// GMCL1P1 / RFU, AEBP2 / Fold change vs veh, AEBP2 / RFU, SNHG1 /// SNORD22 /// SNORD25 /// SNORD26 /// SNORD27 /// SNORD28 /// SNORD29 /// SNORD31 / Fold change vs veh, SNHG1 /// SNORD22 /// SNORD25 /// SNORD26 /// SNORD27 /// SNORD28 /// SNORD29 /// SNORD31 / Fold change (Aza/veh), C12orf56 (ProbeSet 11735607_a_at) / Fold change (ACY-1035/veh), C12orf56 (ProbeSet 11735607_a_at) / Fold change (Aza/veh), FGFR1OP (ProbeSet 11751329_s_at) / Fold change (ACY-1035/veh), FGFR1OP (ProbeSet 11751329_s_at) / Fold change (Aza/veh), VPS36 (ProbeSet 11739960_a_at) / Fold change (ACY-1035/veh), VPS36 (ProbeSet 11739960_a_at) / RFU SYPL1 (11715823_x_at) / Fold change /veh SYPL1 (11715823_x_at) / RFU IGFBP7 (11715501_s_at) / Fold change /veh IGFBP7 (11715501_s_at) / RFU REEP3 (11722064_at) / Fold change /veh REEP3 (11722064_at) / RFU IGLL1 (11728026_x_at) / Fold change /veh IGLL1 (11728026_x_at): dose or concentration left out as unconfirmed
Details: MV-4-11 cells, 48 hours

Nc1ncn([C@@H]2O[C@H](CO)[C@@H](O)[C@H]2O)c(=O)n1 [azacitidine]
RFU FAM26E (11764081_at): 5.32 RFU
